Experimental data as given in patent publication US20160271090A1, “FRATAXIN ENHANCER” (TOKYO UNIVERSITY OF AGRICULTURE, priority 2013, published 2016).

Test system: frataxin protein in human normal fibroblast strain WI-38
Test: Western blot of frataxin protein in WI-38 cells cultured with ALA
Format: cell-based
Settings: ALA 2 mM for 2 hours in DMEM without FBS, then 24 hours in DMEM with 10% FBS, compared to Sample 2 (medium without ALA)
Procedure: • (i) Human normal fibroblast strain WI-38 was cultured in Dulbecco's modified Eagle medium (DMEM) comprising 10% fetal bovine serum (FBS) under 5% CO2. (ii) 5-Aminolevulinic acid (ALA) was added at a final concentration of 2 mM to DMEM without FBS, and cells of (i) were cultured in said medium at 37° C. for 2 hours to allow ALA to be incorporated. (iii) Then, the cells were transferred to DMEM containing 10% FBS and cultured at 37° C. for 24 hours. (iv) The cells were collected by trypsin treatment, washed with phosphate buffered saline (PBS), and then suspended in SDS sample buffer (50 mM Tris-HCl, pH6.8, 2% SDS, 2.5%-mercaptoethanol, 10% glycerol, and 0.01% bromophenol blue), and heated at 100° C. for 5 minutes to allow lysis. […] In this Example, the said cell lysate is referred to as “Sample 2.” Samples 1 and 2 were subjected to 12% SDS-polyacrylamide electrophoresis, and Western blot analysis employing an anti-human frataxin antibody (from Santa Cruz Biotechnology, cat. #sc-25820) and an HRP-labeled anti-rabbit IgG secondary antibody (from GE Healthcare, cat. #N[MUT]) was performed by conventional means. […]

NCC(=O)CCC(=O)O [ALA, 5-aminolevulinic acid]
amount of frataxin protein (Western blot, FIG. 1): clear increase
